Results: patent US20140343089A1, “NOREPINEPHRINE AND SELECTIVE SEROTONIN RECEPTOR BLOCKER AND USE THEREOF” (priority 2011, published 2014)

Assays:
ICR mice [1] = experiment: immobility time of forced swimming in mice; type: in vivo; conditions: i.p.
Experimental: (§1) Animals used for experiments were adult male ICR mice weighing 18˜25 g, housed in 8 pcs/cages, regulated with a 12/12 hour light/dark cycle, maintained at a constant temperature of 23±1° C. and a humidity of 50˜60% and allowed ad libitum access to rodent chow and water. After animals were purchased from the experimental animal center and performed an adaptive housing, the experiment was allowed to start.
(§2) After animal adaptive housing, all the animals were randomly divided into three groups:
(§3) Group one: negative control group, intraperitoneally injected with 1% DMSO in physiological saline (10.0 ml/kg, i.p.);
Group two: experimental drug group, the mice were intraperitoneally injected respectively with different doses of test compound Co. 3: 0.1, 0.5, 1, 5 and 10 mg/kg, i.p., the drug was formulated in 1% DMSO in physiological saline;
(§4) Group three: positive drug control group, the mice were intraperitoneally injected with Desipramine (20 mg/kg, i.p., the drug was formulated in 1% DMSO in physiological saline).
The mice were placed in a large beaker with a height of about 40 cm and an internal diameter of about 19 cm, loaded with water with a temperature of 24˜25° C. inside. The water level reached 22 cm height (Porsolt et al., 1977). […] 30 minutes, or 60 minutes later, the mice were placed into a beaker loaded with water, and immobility time of animals within 5 minutes was measured. […]

rPPB = type: in vitro ADME; conditions: rat plasma protein binding; read-out: rPPB % bound (converted)
In vivo rat PK = conditions: for Cmax / half-life / bioavailability: po; for half-life: read-out: In vivo rat PK T½ (p.o.) (converted); for clearance: iv, read-out: In vivo rat PK CL (i.v.); for bioavailability: read-out: In vivo rat PK F %
Description: The experiment was repeated for three times and the mean value was taken.

ICR mice [2] = experiment: immobility time of tail suspension in mice; type: in vivo; conditions: i.p.; for immobility time of tail suspension in mice: 60 minutes after dosing
Experimental: as §1, §2, §3
Group two: experimental drug group, the mice were intraperitoneally injected respectively with different doses of the test compound Co. 1: 0.1, 0.5, 1, 5 and 10 mg/kg, i.p., the drug was formulated in 1% DMSO in physiological saline;
as §4
The experiment employed Shanghai Jiliang animal behavior video analysis system, wherein the experimental environment was kept absolutely silent, when grabbing animals and administrating, movements were gentle to minimize adverse reactions of mental condition and emotion brought by external stimulus. 60 minutes after dosing, the site 20 mm from the tail end was fixed and the mice were hung upside-down in an activity box for 6 minutes. The immobility time in later 4 minutes was analyzed.

hPPB = type: in vitro ADME; conditions: human plasma protein binding; read-out: hPPB % bound (converted)
ICR mice [3] = experiment: spontaneous activity in mice; type: in vivo; conditions: each test dose (0.1, 0.5, 1, 5 and 10 mg/kg, i.p.); 60 minutes after dosing; P>0.05 compared with negative control
Experimental: as §1, §2, §3
Group two: experimental drug group, the mice were intraperitoneally injected respectively with different doses of test compound Co. 1: 0.1, 0.5, 1, 5 and 10 mg/kg, i.p., the drug was formulated in 1% DMSO in physiological saline. […]
The experiment employed Shanghai Jiliang animal behavior video analysis system, wherein the experimental environment was kept absolutely silent, when grabbing animals and administrating, movements were gentle to minimize adverse reactions of mental condition and emotion brought by external stimulus. […] The spontaneous activity box was connected to a recording apparatus and the activity conditions of mice within 30-60 minutes were recorded. The effects of drug or control substances on spontaneous activity in mice were determined.

[4] = from Zhao, Chinese Journal of Psychiatry, Vol. 35, No. 4; cited from earlier work
rMics binding = type: in vitro ADME; conditions: rat microsomes; read-out: rMics binding % bound (converted)
hMics binding = type: in vitro ADME; conditions: human microsomes; read-out: hMics binding % bound (converted)

Row | SMILES | fraction unbound (rPPB) | Cmax (In vivo rat PK) | half-life (In vivo rat PK) | fraction unbound (hPPB) | clearance (In vivo rat PK) | bioavailability (In vivo rat PK) | further results
1 | CCN1C[C@@H]2c3ncc(C)cc3Oc3cc(F)c(C)cc3[C@@H]2C1 [Co. 3] |  |  |  |  |  |  | immobility time of forced swimming in mice (ICR mice [1]; 0.5, 1.0, 5.0 and 10 mg/kg, P<0.05-0.01 compared to the negative control group): significantly extended; effect on immobility time of forced swimming compared to positive drug Desipramine (ICR mice [1]; Desipramine 20 mg/kg, P<0.05): stronger
2 | CN1C[C@@H]2c3ncccc3Oc3cc(Cl)ccc3[C@@H]2C1 [Co. 1] | 0.2 | 51 ng/mL | 4.6 h | 0.13 |  |  | immobility time of tail suspension in mice (ICR mice [2]; 0.1 and 0.5 mg/kg): no effect; immobility time of tail suspension in mice (ICR mice [2]; 1.0, 5.0 and 10 mg/kg, P<0.05-0.01 compared to the negative control group): significantly inhibited; inhibitory effect on the immobility time of tail suspension compared to positive drug Desipramine (ICR mice [2]; Desipramine 20 mg/kg): similar; spontaneous activity in mice (ICR mice [3]): no significant effect
3 | c1ccc2c(c1)Cc1cccnc1N1CCNCC21 (stereo not drawn) [Demethylated mirtazapine] |  |  |  |  |  |  | share of the drug activity of mirtazapine [4]: 3%-10%
4 | CN1CCN2c3ncccc3Cc3ccccc3C2C1 (stereo not drawn) [Mirtazapine, reference compound] | 0.11 | 30 ng/mL |  | 0.2 | 101 mL/min/kg | 14% | fraction unbound (rMics binding): 0.79; fraction unbound (hMics binding): 0.69
5 | CN1C[C@@H]2c3ncccc3Oc3ccccc3[C@@H]2C1 [Co. 2] | 0.63 | 17 ng/mL | 8.9 h | 0.45 | 139 mL/min/kg | 12% | 
